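How tested: cells in 96-well plates exposed to compound for 48 hours at five concentrations. Abbreviation: GI50, concentration required for 50% inhibition of growth. TGI denotes the concentration required for complete inhibition of growth.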
Legend:
Assay in all cases: NCI-60 cell line screen, 48 h
[1] = test system: CAKI-1 renal
[2] = test system: MDA-MB-468 breast
[3] = test system: HCT-116 colon
[4] = test system: SK-OV-3 ovarian
[5] = test system: A498 renal
[6] = test system: M14 melanoma
[7] = test system: NCI-H460 lung
[8] = test system: BT-549 breast
[9] = test system: MCF7 breast
[10] = test system: IGROV1 ovarian
[11] = test system: MDA-MB-435
[12] = test system: SNB-75 CNS
[13] = test system: K-562 leukemia
[14] = test system: RPMI-8226 leukemia
[15] = test system: HCC-2998 colon
[16] = test system: SK-MEL-28 melanoma
[17] = test system: SF-539 CNS
[18] = test system: NCI-H226 lung
[19] = test system: U251 CNS
[20] = test system: TK-10 renal
[21] = test system: SN12C renal
[22] = test system: CCRF-CEM leukemia
[23] = test system: RXF 393 renal
[24] = test system: MOLT-4 leukemia
[25] = test system: HL-60(TB) leukemia
[26] = test system: NCI-H23 lung
[27] = test system: SNB-19 CNS
[28] = test system: HOP-92 NSCLC
[29] = test system: HCT-15 colon
[30] = test system: UACC-257 melanoma
[31] = test system: SF-295 CNS
[32] = test system: OVCAR-4 ovarian
[33] = test system: SR leukemia
[34] = test system: SK-MEL-2 melanoma
[35] = test system: A549 NSCLC
[36] = test system: HOP-62 NSCLC
[37] = test system: SK-MEL-5 melanoma
[38] = test system: KM12 colon
[39] = test system: ACHN renal
[40] = test system: HT29 colon
[41] = test system: T-47D breast
[42] = test system: EKVX NSCLC
[43] = test system: PC-3 prostate
[44] = test system: SW-620 colon
[45] = test system: DU-145 prostate
[46] = test system: UACC-62 melanoma
[47] = test system: OVCAR-8 ovarian
[48] = test system: HS 578T breast
[49] = test system: NCI-H522 lung
[50] = test system: NCI/ADR-RES ovarian
[51] = test system: SF-268 CNS
[52] = test system: UO-31 renal
[53] = test system: MALME-3M melanoma
[54] = test system: MDA-MB-231 breast
[55] = test system: OVCAR-3 ovarian
[56] = test system: COLO 205 colon
[57] = test system: LOX IMVI melanoma
[58] = test system: 786-0 renal
[59] = test system: OVCAR-5 ovarian

C=CC[Se]C(=O)c1ccc(C(=O)[Se]CC=C)s1
GI50 [1]: 810 nM
TGI [1]: 9760 nM
GI50 [2]: 657 nM
TGI [2]: 1620 nM
GI50 [3]: 327 nM
TGI [3]: 1230 nM
GI50 [4]: 224 nM
TGI [4]: 546 nM
GI50 [5]: 2820 nM
TGI [5]: 66900 nM
GI50 [6]: 387 nM
TGI [6]: 1570 nM
GI50 [7]: 289 nM
TGI [7]: 1610 nM
GI50 [8]: 324 nM
TGI [8]: 1300 nM
GI50 [9]: 565 nM
TGI [9]: 1840 nM
GI50 [10]: 277 nM
TGI [10]: 727 nM
GI50 [11]: 691 nM
TGI [11]: 2060 nM
GI50 [12]: 215 nM
TGI [12]: 577 nM
GI50 [13]: 2100 nM
TGI [13]: > 23000 nM
GI50 [14]: 375 nM
TGI [14]: 2430 nM
GI50 [15]: 313 nM
TGI [15]: 1000 nM
GI50 [16]: 666 nM
TGI [16]: 1850 nM
GI50 [17]: 307 nM
TGI [17]: 852 nM
GI50 [18]: 794 nM
TGI [18]: 2710 nM
GI50 [19]: 505 nM
TGI [19]: 1870 nM
GI50 [20]: 1050 nM
TGI [20]: 7560 nM
GI50 [21]: 348 nM
TGI [21]: 1110 nM
GI50 [22]: 428 nM
TGI [22]: > 21800 nM
GI50 [23]: 696 nM
TGI [23]: 1640 nM
GI50 [24]: 992 nM
TGI [24]: 5600 nM
GI50 [25]: 581 nM
TGI [25]: 2580 nM
GI50 [26]: 313 nM
TGI [26]: 1030 nM
GI50 [27]: 289 nM
TGI [27]: 1260 nM
GI50 [28]: 920 nM
TGI [28]: 7650 nM
GI50 [29]: 765 nM
TGI [29]: 2150 nM
GI50 [30]: 721 nM
TGI [30]: 2080 nM
GI50 [31]: 55.2 nM
TGI [31]: 317 nM
GI50 [32]: 948 nM
TGI [32]: 2500 nM
GI50 [33]: 603 nM
TGI [33]: 2210 nM
GI50 [34]: 1260 nM
TGI [34]: 3170 nM
GI50 [35]: 313 nM
TGI [35]: > 27500 nM
GI50 [36]: 152 nM
TGI [36]: 1450 nM
GI50 [37]: 1490 nM
TGI [37]: 3350 nM
GI50 [38]: 284 nM
TGI [38]: 928 nM
GI50 [39]: 942 nM
TGI [39]: 4370 nM
GI50 [40]: 887 nM
TGI [40]: > 31500 nM
GI50 [41]: 265 nM
TGI [41]: 962 nM
GI50 [42]: 623 nM
TGI [42]: 1630 nM
GI50 [43]: 286 nM
TGI [43]: 1290 nM
GI50 [44]: 800 nM
TGI [44]: 2140 nM
GI50 [45]: 680 nM
TGI [45]: 6400 nM
GI50 [46]: 482 nM
TGI [46]: 1390 nM
GI50 [47]: 345 nM
TGI [47]: 1090 nM
GI50 [48]: 294 nM
TGI [48]: 1890 nM
GI50 [49]: 524 nM
TGI [49]: 1040 nM
GI50 [50]: 261 nM
TGI [50]: 661 nM
GI50 [51]: 768 nM
TGI [51]: 4830 nM
GI50 [52]: 515 nM
TGI [52]: 1090 nM
GI50 [53]: 670 nM
TGI [53]: 2350 nM
GI50 [54]: 676 nM
TGI [54]: 6410 nM
GI50 [55]: 655 nM
TGI [55]: 1620 nM
GI50 [56]: 1400 nM
TGI [56]: 4030 nM
GI50 [57]: 721 nM
TGI [57]: 2000 nM
GI50 [58]: 314 nM
TGI [58]: 1160 nM
GI50 [59]: 382 nM
TGI [59]: 1010 nM
